In US11339161B2, “Triazolo pyridines as modulators of gamma-secretase” (Boehringer Ingelheim International GmbH, priority 2017, dated 2022):

Experiments:
Aβ42 production = assay: Inhibition of Aβ42 production in H4 neuroglioma cells stably expressing human APP695 (MSD electrochemiluminescence); assay type: cell-based; conditions: H4 neuroglioma cells expressing human APP695, 22 hours incubation; Table 4a
Description: (§1) Cells were plated out to near confluency. The compounds to be tested were received as 10 mM stocks in 100% DMSO. A dilution series was initially generated in 100% DMSO and then diluted 200-fold in cell culture media such that the tested concentration range was 30 μM to 0.1 nM and the final DMSO concentration was 0.5%. The diluted compounds were incubated with the cells for 22 hours in an incubator at 37° C. and 5% CO2. Aβ42 levels were measured post-incubation from the supernatant of the cells using an Aβ42 specific electrochemiluminescence assay provided by Meso Scale Discovery (Catalog #L21CA-1). The measurement of Aβ42 levels were performed according to the manufacturer's protocol.

Aβ total = Aβ total levels in H4 neuroglioma cells stably expressing human APP695 (MSD electrochemiluminescence); assay type: cell-based; conditions: selectivity ratio vs. Aβtotal, Table 4a
Description: as §1
Aβ total levels were likewise determined using a specific electrochemiluminescence assay provided by Meso Scale Discovery (Catalog #L21ZA-1) according to the manufacturer's protocol.

ABL1 = ABL1 (Homo sapiens, UniProt P00519); conditions: Z'-Lyte substrate Tyr 02, ATP bin 10 μM (ATP Km app 12 μM), read-out: IC50 of known inhibitor (inhibitor validation); cited from earlier work
CSF1R (FMS) = CSF1R (FMS) (Homo sapiens, UniProt P07333); conditions: substrate Tyr 01, ATP bin 500 μM (ATP Km app 450 μM), read-out: IC50 of known inhibitor (inhibitor validation); cited from earlier work
LYN B = LYN B (Homo sapiens, UniProt P07948); conditions: substrate Tyr 02, ATP bin 25 μM (ATP Km app 25 μM), read-out: IC50 of known inhibitor (inhibitor validation); cited from earlier work
Chain of LYN B (P07948 1-491 isoform P07948-2): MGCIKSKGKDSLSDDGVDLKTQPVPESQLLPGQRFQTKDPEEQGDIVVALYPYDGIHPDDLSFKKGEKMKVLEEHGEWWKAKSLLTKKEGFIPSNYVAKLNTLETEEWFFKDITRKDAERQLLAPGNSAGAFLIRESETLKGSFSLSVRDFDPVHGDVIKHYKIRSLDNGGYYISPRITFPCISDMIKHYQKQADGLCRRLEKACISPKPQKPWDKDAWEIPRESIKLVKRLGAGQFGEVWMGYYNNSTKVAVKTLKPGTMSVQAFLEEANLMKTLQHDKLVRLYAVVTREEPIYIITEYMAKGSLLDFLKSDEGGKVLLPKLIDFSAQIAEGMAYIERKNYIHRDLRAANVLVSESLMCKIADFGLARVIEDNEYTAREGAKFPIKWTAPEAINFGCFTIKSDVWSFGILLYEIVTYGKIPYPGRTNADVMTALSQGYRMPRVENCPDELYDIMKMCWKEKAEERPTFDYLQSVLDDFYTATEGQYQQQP

Chain of CSF1R (FMS) (P07333 20-972): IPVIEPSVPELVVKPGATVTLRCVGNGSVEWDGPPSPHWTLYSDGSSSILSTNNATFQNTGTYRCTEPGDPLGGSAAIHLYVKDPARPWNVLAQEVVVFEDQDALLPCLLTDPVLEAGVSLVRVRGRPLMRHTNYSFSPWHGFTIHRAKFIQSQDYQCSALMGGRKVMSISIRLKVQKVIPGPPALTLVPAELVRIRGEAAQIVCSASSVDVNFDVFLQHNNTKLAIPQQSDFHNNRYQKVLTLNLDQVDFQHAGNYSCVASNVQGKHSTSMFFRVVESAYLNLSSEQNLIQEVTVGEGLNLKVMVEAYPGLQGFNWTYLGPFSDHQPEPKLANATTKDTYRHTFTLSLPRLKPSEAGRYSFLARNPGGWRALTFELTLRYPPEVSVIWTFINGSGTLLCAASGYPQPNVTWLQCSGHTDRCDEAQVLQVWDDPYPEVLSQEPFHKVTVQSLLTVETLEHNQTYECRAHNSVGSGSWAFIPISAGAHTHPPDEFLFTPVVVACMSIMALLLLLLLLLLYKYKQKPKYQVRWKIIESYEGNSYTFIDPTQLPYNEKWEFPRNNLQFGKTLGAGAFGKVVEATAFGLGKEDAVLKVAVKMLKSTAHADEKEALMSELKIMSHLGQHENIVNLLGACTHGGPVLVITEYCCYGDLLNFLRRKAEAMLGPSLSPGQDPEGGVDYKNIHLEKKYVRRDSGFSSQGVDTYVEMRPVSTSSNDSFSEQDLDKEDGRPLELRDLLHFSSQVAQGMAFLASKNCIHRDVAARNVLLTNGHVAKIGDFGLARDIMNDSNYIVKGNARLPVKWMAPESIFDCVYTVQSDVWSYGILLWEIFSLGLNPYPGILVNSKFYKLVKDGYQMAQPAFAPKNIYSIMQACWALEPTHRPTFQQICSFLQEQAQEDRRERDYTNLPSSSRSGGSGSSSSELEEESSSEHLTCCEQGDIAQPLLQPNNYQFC
Chain of ABL1 (P00519 whole entry): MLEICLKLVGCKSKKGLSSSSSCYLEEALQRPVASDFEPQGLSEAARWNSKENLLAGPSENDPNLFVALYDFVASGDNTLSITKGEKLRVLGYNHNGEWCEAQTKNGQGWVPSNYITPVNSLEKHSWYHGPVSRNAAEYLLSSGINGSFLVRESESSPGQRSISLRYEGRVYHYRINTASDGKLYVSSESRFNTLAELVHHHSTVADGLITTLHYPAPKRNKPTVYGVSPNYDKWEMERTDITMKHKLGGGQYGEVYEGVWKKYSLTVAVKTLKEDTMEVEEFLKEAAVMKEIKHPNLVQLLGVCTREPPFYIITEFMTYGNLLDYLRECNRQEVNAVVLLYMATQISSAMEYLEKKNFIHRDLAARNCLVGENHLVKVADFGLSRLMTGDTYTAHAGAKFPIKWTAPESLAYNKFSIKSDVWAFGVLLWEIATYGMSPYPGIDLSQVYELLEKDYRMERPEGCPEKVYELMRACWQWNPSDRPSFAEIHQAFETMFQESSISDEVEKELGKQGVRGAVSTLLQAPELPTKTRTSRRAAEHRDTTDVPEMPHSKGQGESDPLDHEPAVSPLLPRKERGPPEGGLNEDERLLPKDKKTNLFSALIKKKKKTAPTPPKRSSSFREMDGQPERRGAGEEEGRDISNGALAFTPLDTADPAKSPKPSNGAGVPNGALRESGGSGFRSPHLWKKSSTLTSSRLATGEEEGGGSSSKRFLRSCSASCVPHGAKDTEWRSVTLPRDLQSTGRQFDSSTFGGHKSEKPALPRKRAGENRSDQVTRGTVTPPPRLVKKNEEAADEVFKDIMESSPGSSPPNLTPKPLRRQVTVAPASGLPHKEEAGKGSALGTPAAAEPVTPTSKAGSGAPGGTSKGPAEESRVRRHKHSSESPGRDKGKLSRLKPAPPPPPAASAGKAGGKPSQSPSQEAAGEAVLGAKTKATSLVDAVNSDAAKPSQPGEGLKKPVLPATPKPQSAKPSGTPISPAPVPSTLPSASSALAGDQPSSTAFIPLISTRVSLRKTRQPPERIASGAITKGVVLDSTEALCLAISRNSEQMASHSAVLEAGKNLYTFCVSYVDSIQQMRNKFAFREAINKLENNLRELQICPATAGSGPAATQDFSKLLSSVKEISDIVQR

Row | SMILES | IC50 (Aβ42 production) [nM] | Ratio AβTotal IC50/Aβ42 IC50 (Aβ total) | IC50 (ABL1) [nM] | IC50 (CSF1R (FMS)) [nM] | IC50 (LYN B) [nM]
1 | CCc1nnn2c1CCC(Nc1nc3c(-c4ccc(F)cc4C)cccn3n1)C2 (stereo not drawn) [Example 52, (3-Ethyl-4,5,6,7-tetrahydro-[1,2,3]triazolo[1,5-a]pyridine-6-yl)-[8-(4-fluoro-2-methyl-phenyl)-[1,2,4]triazolo[1,5-a]pyridine-2-yl]-amine] | 740 | 2 | – | – | –
2 | CCOC1Cc2c(cnn2CC)CC1Nc1nc2c(-c3cc(F)c(F)c(F)c3)cccn2n1 (stereo not drawn) [Example 50, (6-Ethoxy-1-ethyl-4,5,6,7-tetrahydro-1H-indazol-5-yl)-[8-(3,4,5-trifluoro-phenyl)-[1,2,4]triazolo[1,5-a]pyridine-2-yl]-amine] | 21700 | 1 | – | – | –
3 | Cc1cc(F)ccc1-c1cccn2nc(NC3CCc4[nH]ncc4C3)nc12 (stereo not drawn) [Example 41, [8-(4-Fluoro-2-methyl-phenyl)-[1,2,4]triazolo[1,5-a]pyridine-2-yl]-(4,5,6,7-tetrahydro-1H-indazol-5-yl)-amine] | 4570 | 1 | – | – | –
4 | CCn1ncc2c1CCC(Nc1nc3c(-c4ccccc4Cl)cccn3n1)C2 (stereo not drawn) [Example 58, [8-(2-Chloro-phenyl)-[1,2,4]triazolo[1,5-a]pyridine-2-yl]-(1-ethyl-4,5,6,7-tetrahydro-1H-indazol-5-yl)-amine] | 60 | 34 | – | – | –
5 | COc1cc2ncnc(Nc3cccc(Cl)c3)c2cc1OC [Tyrphostin AG1478] | – | – | 421 | 4420 | 242
6 | CCc1nnc2n1CCC(Nc1nc3c(-c4ccc(F)cc4C)cccn3n1)C2 (stereo not drawn) [Example 53, (3-Ethyl-5,6,7,8-tetrahydro-[1,2,4]triazolo[4,3-a]pyridine-7-yl)-[8-(4-fluoro-2-methyl-phenyl)-[1,2,4]triazolo[1,5-a]pyridine-2-yl]-amine] | 1390 | 1 | – | – | –

Continued, in another order:

Row | IC50 (Aβ42 production) [nM] | SMILES | Ratio AβTotal IC50/Aβ42 IC50 (Aβ total) | IC50 (ABL1) [nM] | IC50 (CSF1R (FMS)) [nM] | IC50 (LYN B) [nM]
7 | 200 | CCn1ncc2c1CCC(Nc1nc3c(-c4cncc(C)c4)cccn3n1)C2 (stereo not drawn) [Example 66, (1-Ethyl-4,5,6,7-tetrahydro-1H-indazol-5-yl)-[8-(5-methyl-pyridin-3-yl)-[1,2,4]triazolo[1,5-a]pyridine-2-yl]-amine] | 154 | – | – | –
8 | 50 | CCn1ncc2c1CCC(Nc1nc3c(-c4ccc(N(C)C)nc4)cccn3n1)C2 (stereo not drawn) [Example 72, [8-(6-Dimethylamino-pyridin-3-yl)-[1,2,4]triazolo[1,5-a]pyridine-2-yl]-(1-ethyl-4,5,6,7-tetrahydro-1H-indazol-5-yl)-amine] | 538 | – | – | –
9 | 30 | CCn1ncc2c1CCC(Nc1nc3c(-c4cc(F)c(F)c(F)c4)cccn3n1)C2 (stereo not drawn) [Example 62, (1-Ethyl-4,5,6,7-tetrahydro-1H-indazol-5-yl)-[8-(3,4,5-trifluoro-phenyl)-[1,2,4]triazolo[1,5-a]pyridine-2-yl]-amine] | 128 | – | – | –
10 | 730 | CCn1ncc2c1CCC(Nc1nc3c(-c4cnccc4C)cccn3n1)C2 (stereo not drawn) [Example 64, (1-Ethyl-4,5,6,7-tetrahydro-1H-indazol-5-yl)-[8-(4-methyl-pyridin-3-yl)-[1,2,4]triazolo[1,5-a]pyridine-2-yl]-amine] | 41 | – | – | –
11 | 60 | CCn1ncc2c1CCC(Nc1nc3c(-c4ccc(Cl)cc4)cccn3n1)C2 (stereo not drawn) [Example 60, [8-(4-Chloro-phenyl)-[1,2,4]triazolo[1,5-a]pyridine-2-yl]-(1-ethyl-4,5,6,7-tetrahydro-1H-indazol-5-yl)-amine] | 113 | – | – | –
12 | 680 | CCn1ncc2c1CCC(Nc1nc3c(-c4cccnc4C)cccn3n1)C2 (stereo not drawn) [Example 65, (1-Ethyl-4,5,6,7-tetrahydro-1H-indazol-5-yl)-[8-(2-methyl-pyridin-3-yl)-[1,2,4]triazolo[1,5-a]pyridine-2-yl]-amine] | 44 | – | – | –
13 | 20 | CCn1ncc2c1CCC(Nc1nc3c(-c4ccc(F)c(Cl)c4)cccn3n1)C2 (stereo not drawn) [Example 61, [8-(3-Chloro-4-fluoro-phenyl)-[1,2,4]triazolo[1,5-a]pyridine-2-yl]-(1-ethyl-4,5,6,7-tetrahydro-1H-indazol-5-yl)-amine] | 152 | – | – | –
